Reference: ChEMBL document CHEMBL1255320, “Anti-BK virus activity of nucleoside analogs” (Antimicrob Agents Chemother, 2008)

Columns and labels:
BK polyomavirus = test: Antimicrobial activity against BK polyomavirus ATCC VR837 infected in human WI38 cells assessed as reduction in viral titer after 7 days by PCR analysis; type: functional, organism-based; settings: Betapolyomavirus hominis, ATCC VR837, WI-38, 168 h
[1] = Cytotoxicity against human WI38 cells by neutral red assay; type: cell-based, WI-38
[2] = Selectivity index, ratio of CC50 for human WI38 cells to EC50 for BK polyomavirus ATCC VR837; type: toxicity, cell-based, WI-38; settings: read-out: Selectivity Index

SMILES | EC50 (BK polyomavirus) [µM] | CC50 [1] [µM] | selectivity ratio [2]
Nc1ncnc2c1ncn2CCOCP(=O)(O)O [ADEFOVIR] | 95.8 | 125 | 1.3
CCCCCCCCCCCCCCCCOCCCOP(=O)(O)CO[C@H](CO)Cn1cnc2c(N)ncnc21 | 0.02 | 0.8 | 58.5
CCCCCCCC/C=C\CCCCCCCCOC(=O)Nc1ncnc2c1ncn2CCOCP(=O)(O)O | 2.3 | 529 | 233
O=c1[nH]cnc2c1ncn2[C@H]1CC[C@@H](CO)O1 [DIDANOSINE] | > 100 | > 100 | 1
Nc1ncnc2c1ncn2/C=C1/CC1(CO)CO | 40.8 | 312 | 11.9
Cc1cn([C@H]2C=C[C@@H](CO)O2)c(=O)[nH]c1=O [STAVUDINE] | > 100 | > 100 | 1
CCCCCCCC/C=C\CCCCCCCC(=O)Nc1ncnc2c1ncn2CCOCP(=O)(O)O | 1 | 165 | 58.9
CCCCCCCCCCCCCCCCCCOCCOP(=O)(O)CO[C@H](CO)Cn1cnc2c(N)ncnc21 | 0.03 | 0.5 | 11.7
CC(=O)OCC(CCn1cnc2cnc(N)nc21)COC(C)=O [FAMCICLOVIR] | > 0.78 | > 0.78 | 1
Nc1nc(=O)c2ncn(COCCOP3(=O)OCc4ccccc4O3)c2[nH]1 (stereo unspecified) | > 100 | 100 | 1
Cc1cn([C@H]2C[C@H](N=[N+]=[N-])[C@@H](CO)O2)c(=O)[nH]c1=O [ZIDOVUDINE] | > 100 | > 100 | 1
Nc1nc(O)c2ncn(/C=C3/CC3CO)c2n1 (stereo unspecified) [SYNGUANOL] | > 100 | > 100 | 1
Nc1nc2c(ncn2/C=C2/CC2(CO)CO)c(=O)[nH]1 [FILOCICLOVIR] | > 100 | > 100 | 1
CC(C)OC(=O)OCOP(=O)(CO[C@H](C)Cn1cnc2c(N)ncnc21)OCOC(=O)OC(C)C [TENOFOVIR DISOPROXIL] | > 50 | > 50 | 1
CC(C)(C)C(=O)OCOP(=O)(COCCn1cnc2c(N)ncnc21)OCOC(=O)C(C)(C)C [ADEFOVIR DIPIVOXIL] | 0.7 | 3.1 | 5.7
Nc1ccn([C@@H]2CS[C@H](CO)O2)c(=O)n1 [LAMIVUDINE] | > 100 | > 100 | 1
Cc1cccc2c1OP(=O)(OC[C@H]1O[C@@H](n3cc(/C=C/Br)c(=O)[nH]c3=O)CC1O)OC2 (single isomer, unassigned) | 41.9 | 98.3 | 2.3
